{
  "source": "paper doi:10.1101/2024.05.30.596569v1",
  "about": "(bioRxiv, 2024)",
  "key": {"E.c K0416": {"test_system": "E.c K0416", "assay": "microbe, parasite or virus in culture", "conditions": "Escherichia coli, K0416, read-out: Minimum inhibitory concentration, E.c K0416"}, "E.c ATCC25922 ΔTolC": {"test_system": "E.c ATCC25922 ΔTolC", "conditions": "Table S3, triplicate"}, "[1]": {"conditions": "pH 7.4"}, "A. baumannii ATCC 19606": {"test_system": "A. baumannii ATCC 19606", "conditions": "Mueller Hinton II broth, 5 × 10^5 cells mL^−1, 18h, turbidity 600 nm, triplicate"}, "P. aeruginosa strains": {"test_system": "P. aeruginosa strains", "conditions": "cited from earlier work"}},
  "data": [
    {"molecule": "O=C(O)c1cn(C2CC2)c2cc(N3CCNCC3)c(F)cc2c1=O", "note": "[CIP, ciprofloxacin]", "values": [
      {"measurement": "MIC", "setting": "E.c K0416", "result": "> 0.5", "unit": "µg/mL"}
    ]},
    {"molecule": "CC(C)(O/N=C(\\C(=O)N[C@@H]1C(=O)N2C(C(=O)[O-])=C(C[n+]3ccccc3)CS[C@H]12)c1csc(N)n1)C(=O)O", "note": "[CZA, ceftazidime]", "values": [
      {"measurement": "MIC", "setting": "E.c K0416", "result": 64, "unit": "µg/mL"}
    ]},
    {"molecule": "CNC(C)C1CCC(N)C(OC2C(N)CC(N)C(OC3OCC(C)(O)C(NC)C3O)C2O)O1", "note": "(stereo not drawn) [GEN, gentamicin]", "values": [
      {"measurement": "MIC", "setting": "E.c K0416", "result": 4, "unit": "µg/mL"},
      {"measurement": "Minimum inhibitory concentration, E.c ATCC25922 ΔTolC", "setting": "E.c ATCC25922 ΔTolC", "result": 0.5, "unit": "µg/mL"}
    ]},
    {"molecule": "CC(C)NCC(O)COc1cccc2ccccc12", "note": "(stereo not drawn) [Propranolol]", "values": [
      {"measurement": "A-B permeability (Caco-2)", "setting": "Caco-2 cells", "result": "38.0 10^-6 cm s^-1"},
      {"measurement": "B-A permeability (Caco-2)", "setting": "Caco-2 cells", "result": "17.2 10^-6 cm s^-1"}
    ]},
    {"molecule": "CO[C@H]1/C=C/O[C@@]2(C)Oc3c(C)c(O)c4c(O)c(c(/C=N/N5CCN(C)CC5)c(O)c4c3C2=O)NC(=O)/C(C)=C\\C=C\\[C@H](C)[C@H](O)[C@@H](C)[C@@H](O)[C@@H](C)[C@H](OC(C)=O)[C@@H]1C", "note": "[Rifampicin]", "values": [
      {"measurement": "Distribution coefficient (log D), logD7.4", "setting": "[1]", "result": 1.12}
    ]},
    {"molecule": "C[C@@H](O)[C@H](NC(=O)[C@H]1NC(=O)[C@H]([C@@H](C)O)NC(=O)[C@H]2NC(=O)[C@H](CC(N)=O)NC(=O)[C@@H](N)Cc3c[nH]c4c(cccc34)OC2c2c[nH]c3cc(ccc23)C1CCCN)C(=O)N[C@@H](Cc1ccccc1)C(=O)O", "note": "(stereo partly drawn) [WNWTKTF]", "values": [
      {"measurement": "Minimum inhibitory concentration, Ab ATCC 19606", "setting": "A. baumannii ATCC 19606", "result": "no activity against A. baumannii"}
    ]},
    {"molecule": "murepavadin", "values": [
      {"measurement": "MIC90 against P. aeruginosa strains", "setting": "P. aeruginosa strains", "result": 0.12, "unit": "µg/mL"}
    ]}
  ]
}
